# Measured values published in publication PMC8831520, “Small molecule SWELL1 complex induction improves glycemic control and nonalcoholic fatty liver disease in murine Type 2 diabetes” (Nature Communications, 2022).
# System: T1, SWELL1 protein in 3T3-F442A preadipocytes
# T1 construct: host or cells: 3T3-F442A preadipocytes and differentiated adipocytes (wild type)
# Assay: SWELL1 protein western blot in preadipocytes
# Assay type: cell-based, murine
# Details: 10 µM, 96 h
# Protocol: In the case of 3T3-F442A adipocytes, the WT and KO cells were treated with either vehicle (DMSO), 1 or 10 µM SN-40X (after 7–11 days of differentiation) for 96 h and then stimulated with 0 and 10 nM insulin/serum-containing media with vehicle (DMSO) or SN-40X for 15 min for SWELL1 detection. […] To simulate glucolipotoxicity, 8 mM sodium palmitate was dissolved in 18.4% fatty-acid free BSA at 37 °C in DMEM medium with 25 mM glucose to obtain a conjugation ratio of 1:3 palmitate:BSA[80].
# Adipocytes were washed twice in ice-cold phosphate buffer saline and lysed in RIPA buffer (150 mM NaCl, 20 mM HEPES, 1% NP-40, 5 mM EDTA, pH 7.4) with proteinase/phosphatase inhibitors (Roche). The cell lysate was further sonicated in 10 s cycle intervals 2–3 times and centrifuged at 18,407×g for 30 min at 4 °C and repeated one more time to remove the excess fat. The supernatant was collected and further estimated for protein concentration using a DC protein assay kit (Bio-Rad). Fat and liver tissues were homogenized and suspended in RIPA buffer with inhibitors and further processed in a similar fashion as described above. HUVECs were also prepared in a similar fashion except the lysates were spun only once to remove the cells debris to obtain the clear supernatant. […] The images were further analyzed for band intensities using ImageJ software. […]
structure (smiles),measurement,value
"CCCCC1(C2CCCC2)Cc2cc(OCCCC(=O)O)c(Cl)c(Cl)c2C1=O (stereo not shown) [SN-401, 4-((2-butyl-6,7-dichloro-2-cyclopentyl-1-oxo-2,3-dihydro-1H-inden-5-yl)oxy)butanoic acid]",SWELL1 protein expression,threefold
